Here are results for one compound from ChEMBL document CHEMBL5500413, “Discovery of Novel Receptor Tyrosine Kinase-like Orphan Receptor 1 (ROR1) Inhibitors for Cancer Treatment” (J Med Chem, 2024).

The subject of assay [1] is MDA-MB-231. The experiment in a line: Antiproliferative activity against human MDA-MB-231 cells harboring high ROR1 expression assessed as inhibition of cell growth incubated for 72 hrs by MTT assay. The assay is classed as functional, cell-based. The settings on record: MDA-MB-231, 72 h. On the technique in general: Formazan colour is commonly taken as a measure of viable cells.

Assay [2] deals with NCI-H1975. The experiment in a line: Antiproliferative activity against human NCI-H1975 cells harboring high ROR1 expression assessed as inhibition of cell growth incubated for 72 hrs by MTT assay. The settings on record: NCI-H1975, 72 h. The assay is classed as functional, cell-based.
The test system of assay [3] is A549. The experiment in a line: Antiproliferative activity against human A549 cells harboring high ROR1 expression assessed as inhibition of cell growth incubated for 72 hrs by MTT assay. The settings on record: A549, 72 h. The assay is classed as functional, cell-based.
Assay [4] concerns the target Inactive tyrosine-protein kinase transmembrane receptor ROR1 (Homo sapiens, UniProt Q01973). The experiment in a line: Binding affinity to ROR1 kinase domain (453 to 783 residues) (unknown origin) assessed as dissociation constant by SPR analysis. (Surface plasmon resonance follows binding to a sensor surface in real time, without labels.)

Inactive tyrosine-protein kinase transmembrane receptor ROR1, sequence (Q01973 whole entry, the tested form may be a part): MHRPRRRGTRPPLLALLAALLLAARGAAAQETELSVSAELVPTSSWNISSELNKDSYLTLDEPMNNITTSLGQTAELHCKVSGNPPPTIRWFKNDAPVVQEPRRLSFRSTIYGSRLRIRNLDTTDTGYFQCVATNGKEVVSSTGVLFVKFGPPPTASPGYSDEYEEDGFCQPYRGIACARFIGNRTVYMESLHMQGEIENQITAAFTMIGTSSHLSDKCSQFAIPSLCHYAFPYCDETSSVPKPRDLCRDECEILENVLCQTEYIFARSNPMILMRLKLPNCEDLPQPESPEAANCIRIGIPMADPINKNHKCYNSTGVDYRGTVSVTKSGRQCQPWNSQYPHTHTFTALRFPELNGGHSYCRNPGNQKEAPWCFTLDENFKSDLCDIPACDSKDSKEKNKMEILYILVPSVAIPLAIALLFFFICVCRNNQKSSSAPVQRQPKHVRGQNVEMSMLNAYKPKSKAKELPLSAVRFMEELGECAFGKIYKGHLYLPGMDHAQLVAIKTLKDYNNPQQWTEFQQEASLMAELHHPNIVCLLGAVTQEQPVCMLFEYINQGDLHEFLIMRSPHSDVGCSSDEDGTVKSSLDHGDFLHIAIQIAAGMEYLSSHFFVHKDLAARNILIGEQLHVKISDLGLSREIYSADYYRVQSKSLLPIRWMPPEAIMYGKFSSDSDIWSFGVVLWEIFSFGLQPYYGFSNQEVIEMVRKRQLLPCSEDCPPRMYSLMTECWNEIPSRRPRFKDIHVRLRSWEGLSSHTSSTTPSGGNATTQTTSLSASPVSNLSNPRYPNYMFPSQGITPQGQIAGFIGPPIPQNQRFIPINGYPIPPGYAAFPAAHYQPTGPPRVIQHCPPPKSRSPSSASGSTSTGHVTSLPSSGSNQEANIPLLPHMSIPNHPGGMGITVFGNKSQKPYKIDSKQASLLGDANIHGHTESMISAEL

`Cc1ccc(C(=O)Nc2cccc(N(C)C)c2)cc1C#Cc1cnc2cccnn12`: the IC50 in assay [1] was determined as 31.3 µM; in assay [2], 66.7 µM; in assay [3], 27.5 µM. The Kd in assay [4] came to 8.25 µM.

As usually defined, the IC50 is the concentration that inhibits the measured activity by half. By Kd is commonly meant the constant that tells how readily two partners part at equilibrium.
